The results in this text go back to publication PMC8213057, “Targeting ALK2: An Open Science Approach to Developing Therapeutics for the Treatment of Diffuse Intrinsic Pontine Glioma” (Journal of Medicinal Chemistry, 2020).

Assay [1] deals with DAPK2 (Homo sapiens, UniProt Q9UIK4). Briefly: biochemical. The following applies: read-out: % enzyme activity, 1 μM; Run 1, Run 2.
Assay [2] has as its target NIM1 (Homo sapiens, UniProt Q8IY84). As to the kind of experiment: biochemical. The following applies: read-out: % enzyme activity, 1 μM; Run 1, Run 2.
For assay [3], the target named is TRKC (Homo sapiens, UniProt Q16288). As to the kind of experiment: biochemical. To be noted: read-out: % enzyme activity, 1 μM; Run 1, Run 2.
Assay [4] has as its target YES/YES1 (Homo sapiens, UniProt P07947). As to the kind of experiment: biochemical. The following applies: read-out: % enzyme activity, 1 μM; Run 1, Run 2.
Assay [5] addresses T1, NEK8 (Homo sapiens, UniProt Q86SG6).
T1 sequence (Q86SG6 1-692): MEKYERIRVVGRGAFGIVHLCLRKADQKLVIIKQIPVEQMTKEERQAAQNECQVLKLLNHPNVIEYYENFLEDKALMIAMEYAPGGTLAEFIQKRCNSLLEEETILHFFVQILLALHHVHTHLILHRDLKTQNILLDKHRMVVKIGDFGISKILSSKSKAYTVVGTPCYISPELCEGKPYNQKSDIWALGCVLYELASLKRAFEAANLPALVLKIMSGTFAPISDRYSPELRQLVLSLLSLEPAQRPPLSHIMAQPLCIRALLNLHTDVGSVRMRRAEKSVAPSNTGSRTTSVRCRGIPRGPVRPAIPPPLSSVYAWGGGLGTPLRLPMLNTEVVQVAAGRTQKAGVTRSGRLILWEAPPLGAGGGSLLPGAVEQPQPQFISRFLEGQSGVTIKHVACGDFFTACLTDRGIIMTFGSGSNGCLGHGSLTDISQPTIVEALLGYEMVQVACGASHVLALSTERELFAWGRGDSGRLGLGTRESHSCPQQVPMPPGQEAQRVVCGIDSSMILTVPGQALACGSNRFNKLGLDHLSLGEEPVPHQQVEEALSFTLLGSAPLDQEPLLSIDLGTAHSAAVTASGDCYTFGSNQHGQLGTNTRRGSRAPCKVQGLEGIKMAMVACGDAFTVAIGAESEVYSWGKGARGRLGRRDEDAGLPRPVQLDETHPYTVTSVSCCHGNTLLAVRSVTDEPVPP
As to the kind of experiment: biochemical. To be noted: read-out: % enzyme activity, 1 μM; Run 1, Run 2.

For assay [6], the target named is T2, NEK5 (Homo sapiens, UniProt Q6P3R8).
T2 sequence (Q6P3R8 1-708): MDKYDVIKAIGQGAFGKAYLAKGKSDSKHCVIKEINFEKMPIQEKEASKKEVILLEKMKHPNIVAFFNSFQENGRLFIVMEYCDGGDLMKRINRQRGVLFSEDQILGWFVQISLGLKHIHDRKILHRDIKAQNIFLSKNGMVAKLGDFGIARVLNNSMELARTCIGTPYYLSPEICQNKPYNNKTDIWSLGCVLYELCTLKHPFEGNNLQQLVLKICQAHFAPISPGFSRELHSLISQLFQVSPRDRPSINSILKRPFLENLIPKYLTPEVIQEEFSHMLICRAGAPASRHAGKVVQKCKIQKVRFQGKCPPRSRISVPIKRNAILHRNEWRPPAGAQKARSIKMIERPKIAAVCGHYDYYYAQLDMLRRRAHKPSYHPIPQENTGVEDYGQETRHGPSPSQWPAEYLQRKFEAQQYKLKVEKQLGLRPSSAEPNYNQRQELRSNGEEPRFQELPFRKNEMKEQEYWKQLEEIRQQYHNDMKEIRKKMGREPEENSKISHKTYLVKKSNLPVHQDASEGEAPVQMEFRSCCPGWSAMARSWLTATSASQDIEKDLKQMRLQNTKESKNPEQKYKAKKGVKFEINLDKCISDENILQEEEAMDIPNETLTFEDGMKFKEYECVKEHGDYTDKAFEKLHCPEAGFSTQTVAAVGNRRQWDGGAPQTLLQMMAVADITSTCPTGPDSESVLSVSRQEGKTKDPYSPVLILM
To be noted: 1 μM; Run 1, Run 2.

The target in assay [7] is T3, EPHA8 (Homo sapiens, UniProt P29322).
T3 sequence (P29322 28-1005): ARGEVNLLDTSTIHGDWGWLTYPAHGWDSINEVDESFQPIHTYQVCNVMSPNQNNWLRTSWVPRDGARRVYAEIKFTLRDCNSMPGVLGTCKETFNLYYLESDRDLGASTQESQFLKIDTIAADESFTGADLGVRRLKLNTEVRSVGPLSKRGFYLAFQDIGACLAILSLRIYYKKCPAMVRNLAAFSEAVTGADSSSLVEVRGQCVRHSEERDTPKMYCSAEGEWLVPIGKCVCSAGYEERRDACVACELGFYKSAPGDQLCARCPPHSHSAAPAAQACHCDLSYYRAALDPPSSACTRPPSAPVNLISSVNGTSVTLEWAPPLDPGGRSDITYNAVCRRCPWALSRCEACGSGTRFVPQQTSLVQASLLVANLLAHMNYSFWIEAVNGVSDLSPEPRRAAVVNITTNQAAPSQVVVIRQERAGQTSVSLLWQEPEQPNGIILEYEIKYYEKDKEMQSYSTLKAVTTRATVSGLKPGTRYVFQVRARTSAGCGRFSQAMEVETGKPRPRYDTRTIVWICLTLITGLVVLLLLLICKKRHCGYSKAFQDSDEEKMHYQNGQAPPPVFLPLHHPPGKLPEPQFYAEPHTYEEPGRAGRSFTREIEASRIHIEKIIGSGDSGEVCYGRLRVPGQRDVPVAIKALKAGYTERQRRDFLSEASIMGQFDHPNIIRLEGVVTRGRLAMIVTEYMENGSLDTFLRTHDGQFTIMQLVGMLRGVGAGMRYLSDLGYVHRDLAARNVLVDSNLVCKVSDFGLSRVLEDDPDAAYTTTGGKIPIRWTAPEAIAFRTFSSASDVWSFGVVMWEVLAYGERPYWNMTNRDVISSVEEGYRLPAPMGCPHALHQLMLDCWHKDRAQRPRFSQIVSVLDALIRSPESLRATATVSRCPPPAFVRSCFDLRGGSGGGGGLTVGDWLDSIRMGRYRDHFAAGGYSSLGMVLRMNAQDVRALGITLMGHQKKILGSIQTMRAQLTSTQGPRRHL
To be noted: 1 μM; Run 1, Run 2.

Sequence of YES/YES1 (P07947 whole entry): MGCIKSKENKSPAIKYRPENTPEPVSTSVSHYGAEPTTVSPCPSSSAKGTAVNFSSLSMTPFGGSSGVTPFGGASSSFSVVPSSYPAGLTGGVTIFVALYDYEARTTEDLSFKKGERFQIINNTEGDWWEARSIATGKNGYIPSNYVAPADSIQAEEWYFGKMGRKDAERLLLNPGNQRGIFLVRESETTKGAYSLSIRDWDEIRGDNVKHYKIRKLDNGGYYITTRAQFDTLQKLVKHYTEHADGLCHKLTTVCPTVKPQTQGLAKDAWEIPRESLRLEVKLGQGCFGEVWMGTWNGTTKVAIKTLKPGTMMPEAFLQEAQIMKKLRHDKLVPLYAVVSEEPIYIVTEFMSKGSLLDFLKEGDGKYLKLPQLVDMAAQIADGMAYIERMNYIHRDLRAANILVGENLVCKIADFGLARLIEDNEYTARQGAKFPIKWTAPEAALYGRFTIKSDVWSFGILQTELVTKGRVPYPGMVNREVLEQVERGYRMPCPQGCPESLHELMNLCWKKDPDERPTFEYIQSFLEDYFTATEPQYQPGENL
Sequence of TRKC (Q16288 32-839): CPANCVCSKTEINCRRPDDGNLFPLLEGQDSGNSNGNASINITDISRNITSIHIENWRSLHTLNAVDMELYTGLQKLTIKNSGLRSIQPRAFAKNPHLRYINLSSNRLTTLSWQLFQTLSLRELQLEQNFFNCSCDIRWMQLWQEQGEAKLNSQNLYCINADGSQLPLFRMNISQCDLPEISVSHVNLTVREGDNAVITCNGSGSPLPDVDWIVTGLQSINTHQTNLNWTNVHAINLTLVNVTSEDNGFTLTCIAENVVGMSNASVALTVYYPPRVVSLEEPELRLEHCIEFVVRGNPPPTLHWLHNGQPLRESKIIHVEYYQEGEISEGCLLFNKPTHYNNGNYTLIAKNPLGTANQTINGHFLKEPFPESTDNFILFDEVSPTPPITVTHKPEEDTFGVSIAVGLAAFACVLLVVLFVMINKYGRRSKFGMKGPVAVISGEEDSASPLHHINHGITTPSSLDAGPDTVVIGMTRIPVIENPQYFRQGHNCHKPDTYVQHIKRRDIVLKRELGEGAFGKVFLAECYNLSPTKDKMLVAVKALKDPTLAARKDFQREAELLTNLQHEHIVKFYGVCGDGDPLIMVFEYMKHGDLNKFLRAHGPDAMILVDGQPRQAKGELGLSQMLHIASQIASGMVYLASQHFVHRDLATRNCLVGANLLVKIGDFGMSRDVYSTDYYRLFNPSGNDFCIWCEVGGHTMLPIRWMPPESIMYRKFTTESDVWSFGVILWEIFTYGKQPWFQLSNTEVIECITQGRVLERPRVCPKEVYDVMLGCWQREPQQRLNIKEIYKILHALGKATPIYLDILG
Sequence of NIM1 (Q8IY84 whole entry): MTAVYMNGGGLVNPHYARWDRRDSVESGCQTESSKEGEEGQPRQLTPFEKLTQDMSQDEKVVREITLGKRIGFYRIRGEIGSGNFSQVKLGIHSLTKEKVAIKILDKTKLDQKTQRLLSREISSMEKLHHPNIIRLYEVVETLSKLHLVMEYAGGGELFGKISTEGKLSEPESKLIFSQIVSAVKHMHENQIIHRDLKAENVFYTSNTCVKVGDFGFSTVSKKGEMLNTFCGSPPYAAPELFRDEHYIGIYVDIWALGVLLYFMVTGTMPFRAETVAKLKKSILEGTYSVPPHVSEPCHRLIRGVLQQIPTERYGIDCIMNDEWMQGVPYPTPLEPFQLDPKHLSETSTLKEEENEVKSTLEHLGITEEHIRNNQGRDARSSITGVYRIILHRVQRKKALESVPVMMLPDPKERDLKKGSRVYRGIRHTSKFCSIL
Sequence of DAPK2 (Q9UIK4 whole entry): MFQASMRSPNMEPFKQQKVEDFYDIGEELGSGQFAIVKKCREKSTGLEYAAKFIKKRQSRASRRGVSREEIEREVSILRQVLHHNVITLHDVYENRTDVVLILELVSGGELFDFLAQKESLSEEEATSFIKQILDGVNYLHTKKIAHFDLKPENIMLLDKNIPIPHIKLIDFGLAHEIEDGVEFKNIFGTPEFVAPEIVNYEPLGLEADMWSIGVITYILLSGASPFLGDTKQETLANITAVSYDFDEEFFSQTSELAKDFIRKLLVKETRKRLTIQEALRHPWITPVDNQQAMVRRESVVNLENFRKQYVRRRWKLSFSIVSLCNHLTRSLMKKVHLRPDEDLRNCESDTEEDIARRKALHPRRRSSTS

As to `COc1cc(-c2cncc(-c3ccc(N4CCN(C)CC4)cc3)c2C)cc(F)c1C(N)=O` [Compound 26a, 2-Fluoro-6-methoxy-4-(4-methyl-5-(4-(4-methylpiperazin-1-yl)phenyl)pyridin-3-yl)benzamide], the remaining activity at 1 µM amounted to 103% in assay [1]; 96.6% in assay [2]; 103% in assay [3]; 105% in assay [4]; 98.4% in assay [5]. Besides, the “% enzyme activity” value is given as 97.51% in assay [6] and 94.54% in assay [7].
In the case of `COc1cc(-c2cncc(-c3ccc(N4C[C@@H](C)N(C)[C@@H](C)C4)cc3)c2C)cc(F)c1C(N)=O` [Compound 26c, 2-Fluoro-6-methoxy-4-(4-methyl-5-(4-((3R,5S)-3,4,5-trimethylpiperazin-1-yl)phenyl)pyridin-3-yl)benzamide], the remaining activity at 1 µM turned out to be 100% in assay [1]; 98.2% in assay [2]; 99% in assay [3]; 109% in assay [4]; 109% in assay [5]. The “% enzyme activity” value turned out to be 93.10% in assay [6] and 97.01% in assay [7].
